Measurements taken from patent US9056874B2, “Complement pathway modulators and uses thereof” (NOVARTIS AG, priority 2012, dated 2015).

Molecular target: factor B (Homo sapiens, UniProt P00751)
Experiment: factor B inhibition assay of Biological Example 1
Type: biochemical
Design: CVF-Bb complex prepared from purified cobra venom factor (1 μM), recombinant human complement factor B; made in house; host or cells: drosophila cells (factor B); E. coli (factor D used to form the complex)
Conditions: IC50 (nM), assay of Biological Example 1 (Table 1)

Chain of factor B (P00751 260-764 limits assumed): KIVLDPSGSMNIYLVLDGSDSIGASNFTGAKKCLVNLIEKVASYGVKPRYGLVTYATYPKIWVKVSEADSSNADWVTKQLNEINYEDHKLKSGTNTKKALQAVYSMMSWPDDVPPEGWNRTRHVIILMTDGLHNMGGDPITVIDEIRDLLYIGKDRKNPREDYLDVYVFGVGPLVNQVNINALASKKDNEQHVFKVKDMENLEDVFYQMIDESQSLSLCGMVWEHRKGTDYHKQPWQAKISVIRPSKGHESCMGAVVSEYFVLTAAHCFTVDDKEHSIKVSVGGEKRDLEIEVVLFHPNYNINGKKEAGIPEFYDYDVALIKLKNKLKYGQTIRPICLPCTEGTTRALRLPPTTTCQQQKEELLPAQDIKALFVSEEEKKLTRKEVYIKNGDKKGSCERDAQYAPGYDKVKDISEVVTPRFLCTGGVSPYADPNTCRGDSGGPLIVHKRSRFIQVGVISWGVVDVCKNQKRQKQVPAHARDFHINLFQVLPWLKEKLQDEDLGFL
Chain of factor B (Q91132 23-649 partner limits assumed): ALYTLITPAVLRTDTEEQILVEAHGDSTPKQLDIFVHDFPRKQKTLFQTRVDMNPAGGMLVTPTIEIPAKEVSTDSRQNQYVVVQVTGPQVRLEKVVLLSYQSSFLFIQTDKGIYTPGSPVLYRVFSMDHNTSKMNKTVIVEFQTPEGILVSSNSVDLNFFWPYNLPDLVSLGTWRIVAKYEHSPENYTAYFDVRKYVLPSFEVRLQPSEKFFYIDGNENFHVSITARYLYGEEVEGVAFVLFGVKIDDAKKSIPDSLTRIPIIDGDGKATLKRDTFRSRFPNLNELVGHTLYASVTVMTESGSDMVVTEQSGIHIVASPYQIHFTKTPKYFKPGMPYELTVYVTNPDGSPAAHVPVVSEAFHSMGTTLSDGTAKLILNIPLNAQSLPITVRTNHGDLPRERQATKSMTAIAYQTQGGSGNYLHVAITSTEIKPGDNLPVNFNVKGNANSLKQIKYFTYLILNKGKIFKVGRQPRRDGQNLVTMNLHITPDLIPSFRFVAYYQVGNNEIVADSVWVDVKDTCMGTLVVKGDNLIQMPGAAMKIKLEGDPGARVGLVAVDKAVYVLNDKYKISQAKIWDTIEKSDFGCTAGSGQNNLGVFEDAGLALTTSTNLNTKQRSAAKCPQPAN
Chain of factor B (Q91132 733-984 partner limits assumed): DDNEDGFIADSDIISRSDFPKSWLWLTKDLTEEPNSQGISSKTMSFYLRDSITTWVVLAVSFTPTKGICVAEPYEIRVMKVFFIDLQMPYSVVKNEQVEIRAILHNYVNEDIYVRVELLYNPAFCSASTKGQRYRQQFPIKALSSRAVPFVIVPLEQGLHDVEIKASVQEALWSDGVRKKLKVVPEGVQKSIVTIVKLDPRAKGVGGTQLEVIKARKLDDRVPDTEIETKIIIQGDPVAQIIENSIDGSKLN
Chain of factor B (Q91132 1264-1642 partner limits assumed): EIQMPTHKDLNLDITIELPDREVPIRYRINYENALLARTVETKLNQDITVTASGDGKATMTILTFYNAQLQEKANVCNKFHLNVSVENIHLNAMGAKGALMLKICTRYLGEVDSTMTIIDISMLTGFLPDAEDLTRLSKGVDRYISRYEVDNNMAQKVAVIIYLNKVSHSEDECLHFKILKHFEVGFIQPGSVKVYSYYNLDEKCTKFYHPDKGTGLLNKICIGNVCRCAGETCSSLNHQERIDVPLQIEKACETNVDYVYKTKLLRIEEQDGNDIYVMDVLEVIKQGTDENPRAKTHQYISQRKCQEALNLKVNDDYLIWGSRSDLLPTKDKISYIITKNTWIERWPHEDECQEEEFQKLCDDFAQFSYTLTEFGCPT

Which IC50 does the source give for `CCc1cc(C)c2[nH]ccc2c1C(OC)c1nc2cc(C#N)ccc2[nH]1` (single isomer, unassigned; (+)) [70-D b) (+), (+)-2-((5-ethyl-7-methyl-1H-indol-4-yl)(methoxy)methyl)-1H-benzo[d]imidazole-5-carbonitrile] here?
Its IC50 is 950 nM.

Which IC50 does the source give for `COc1cc(C)c2[nH]ccc2c1C(O)c1nc2cc(C#N)ccc2[nH]1` (single isomer, unassigned; (-)) [24-B b) (−), (−)-2-(hydroxy(5-methoxy-7-methyl-1H-indol-4-yl)methyl)-1H-benzo[d]imidazole-5-carbonitrile] here?
The IC50 was 90 nM.

For `Cc1cc(S(C)(=O)=O)c(C(N)c2nc3cc(C#N)ccc3[nH]2)c2cc[nH]c12` (single isomer, unassigned) [18-D (−), 2-(amino(7-methyl-5-(methylsulfonyl)-1H-indol-4-yl)methyl)-1H-benzo[d]imidazole-5-carbonitrile], which IC50 is on record?
The IC50 was 150 nM.

How did the IC50 turn out when `Cc1cc(OC(F)F)c(C(C)(O)c2nc3cc(C#N)ccc3[nH]2)c2cc[nH]c12` (racemic) [6-B b) (−), (−)-2-(1-(5-(difluoromethoxy)-7-methyl-1H-indol-4-yl)-1-hydroxyethyl)-1H-benzo[d]imidazole-5-carbonitrile] was run?
Its IC50 is 110 nM.

For `CCc1cc(C)c2[nH]ccc2c1Cc1nc2cc(C#N)ccc2[nH]1` [Example 63-A], which IC50 is on record?
Its IC50 is 160 nM.

Which IC50 does the source give for `CNC(c1nc2cc(C#N)ccc2[nH]1)(c1c(S(C)(=O)=O)cc(C)c2[nH]ccc12)C(F)(F)F` (single isomer, unassigned; (+)) [16-B b) (+), (+)-2-(2,2,2-trifluoro-1-(7-methyl-5-(methylsulfonyl)-1H-indol-4-yl)-1-(methylamino)ethyl)-1H-benzo[d]imidazole-5-carbonitrile] here?
The IC50 was 4740 nM.

How did the IC50 turn out when `Cc1cc(OCC2CC2)c(C(C)(O)c2nc3cc(C#N)ccc3[nH]2)c2cc[nH]c12` (single isomer, unassigned; (-)) [26-G b) (−), (−)-2-(1-(5-(cyclopropylmethoxy)-7-methyl-1H-indol-4-yl)-1-hydroxyethyl)-1H-benzo[d]imidazole-5-carbonitrile] was run?
Its IC50 is 4380 nM.

`CCc1cc(C)c2[nH]ccc2c1C(OCC(=O)O)(c1nc2cc(C#N)ccc2[nH]1)C(F)(F)F` (racemic) [Example 109-B, (±)-2-(1-(5-cyano-1H-benzo[d]imidazol-2-yl)-1-(5-ethyl-7-methyl-1H-indol-4-yl)-2,2,2-trifluoroethoxy)acetic acid] was tested. Which IC50 did it give?
The IC50 was 30 nM.

How did the IC50 turn out when `COCc1cc(C)c2[nH]ccc2c1Cc1nc2cc(C#N)ccc2[nH]1` [Example 63-D] was run?
Its IC50 is 1100 nM.

With `COc1cc(C)c2[nH]ccc2c1C(O)c1cc2cc(C#N)ccc2o1` (racemic) [Example 134, (±)-2-(hydroxy(5-methoxy-7-methyl-1H-indol-4-yl)methyl)benzofuran-5-carbonitrile] as the compound, how does the IC50 read?
The IC50 was 90 nM.

Which IC50 does the source give for `CCc1cc(C)c2[nH]ccc2c1C(C)(N)c1nc2cc(C#N)ccc2[nH]1` (single isomer, unassigned; (+)) [102-C b) (+), (+)-2-(1-amino-1-(5-ethyl-7-methyl-1H-indol-4-yl)ethyl)-1H-benzo[d]imidazole-5-carbonitrile] here?
Its IC50 is 50 nM.

How did the IC50 turn out when `COc1cc(C)c2[nH]ccc2c1C(O)(c1nc2cc(C#N)ccc2[nH]1)C(F)(F)F` (single isomer, unassigned; (+)) [33-B b) (+), (+)-2-(2,2,2-trifluoro-1-hydroxy-1-(5-methoxy-7-methyl-1H-indol-4-yl)ethyl)-1H-benzo[d]imidazole-5-carbonitrile] was run?
Its IC50 is 430 nM.

`COCC(C)Oc1cc(C)c2[nH]ccc2c1Cc1nc2cc(C#N)ccc2[nH]1` (racemic) [Example 23, (±)-2-((5-((1-Methoxypropan-2-yl)oxy)-7-methyl-1H-indol-4-yl)methyl)-1H-benzo[d]imidazole-5-carbonitrile] was tested. Which IC50 did it give?
Its IC50 is 2650 nM.

Which IC50 does the source give for `Cc1cc(C2CC2)c(C(O)c2nc3cc(C#N)ccc3[nH]2)c2cc[nH]c12` (stereo not drawn) [Example 67-B] here?
Its IC50 is 260 nM.

Which IC50 does the source give for `Cc1cc(C)c2[nH]ccc2c1Cc1nc2cc(C#N)cc(C)c2[nH]1` [Example 63-F] here?
The IC50 was greater than 100000 nM.

With `Cc1cc(Cl)c(C(C)(O)c2nc3cc(C#N)ccc3[nH]2)c2cc[nH]c12` (single isomer, unassigned; (-)) [79-E b) (−), (−)-2-(1-(5-chloro-7-methyl-1H-indol-4-yl)-1-hydroxyethyl)-1H-benzo[d]imidazole-5-carbonitrile] as the compound, how does the IC50 read?
Its IC50 is 350 nM.

Which IC50 does the source give for `COC(C)(c1nc2cc(C#N)ccc2[nH]1)c1c(OC(C)C)cc(C)c2[nH]ccc12` (stereo not drawn) [Example 27-C] here?
Its IC50 is 90 nM.

`COc1cc(C)c2[nH]ccc2c1C(N)c1nc2cc(C#N)ccc2[nH]1` (single isomer, unassigned) [39-C b) (tr = 24.1 min), (−) or (+)-2-(amino(5-methoxy-7-methyl-1H-indol-4-yl)methyl)-1H-benzo[d]imidazole-5-carbonitrile] was tested. Which IC50 did it give?
Its IC50 is 8 nM.

With `CNC(c1nc2cc(C#N)ccc2[nH]1)(c1c(Br)cc(C)c2[nH]ccc12)C(F)(F)F` (single isomer, unassigned; (-)) [106 b) (−), (−)-2-(1-(5-bromo-7-methyl-1H-indol-4-yl)-2,2,2-trifluoro-1-(methylamino)ethyl)-1H-benzo[d]imidazole-5-carbonitrile] as the compound, how does the IC50 read?
The IC50 was 8 nM.

For `Cc1cc(C)c2[nH]ccc2c1Cc1nc2cc(C#N)c(Cl)cc2[nH]1` [Example 63-I], which IC50 is on record?
Its IC50 is 72600 nM.

How did the IC50 turn out when `Cc1cc(OCC2CC2)c(C(C)(O)c2nc3cc(C#N)ccc3[nH]2)c2cc[nH]c12` (single isomer, unassigned; (+)) [26-G b) (+), (+)-2-(1-(5-(cyclopropylmethoxy)-7-methyl-1H-indol-4-yl)-1-hydroxyethyl)-1H-benzo[d]imidazole-5-carbonitrile] was run?
Its IC50 is 4950 nM.

`Cc1cc(OC(C)C)c(C(O)c2nc3cc(C#N)ccc3[nH]2)c2cc[nH]c12` (single isomer, unassigned; (+)) [24-D b) (+), (+)-2-(hydroxy(5-isopropoxy-7-methyl-1H-indol-4-yl)methyl)-1H-benzo[d]imidazole-5-carbonitrile] was tested. Which IC50 did it give?
Its IC50 is 1980 nM.

How did the IC50 turn out when `Cc1cc(C)c2[nH]ccc2c1C(OCC(=O)O)c1nc2cc(C#N)ccc2[nH]1` (racemic) [Example 69, (±)-2-((5-cyano-1H-benzo[d]imidazol-2-yl)(5,7-dimethyl-1H-indol-4-yl)methoxy)acetic acid] was run?
Its IC50 is 3630 nM.

`CC(=O)NC(c1nc2cc(C#N)ccc2[nH]1)c1c(C)cc(C)c2[nH]ccc12` (racemic) [Example 100, (±)-N-((5-cyano-1H-benzo[d]imidazol-2-yl)(5,7-dimethyl-1H-indol-4-yl)methyl)acetamide] was tested. Which IC50 did it give?
Its IC50 is 1120 nM.

How did the IC50 turn out when `Cc1cc(OC(F)F)c(C(C)(N)c2nc3cc(C#N)ccc3[nH]2)c2cc[nH]c12` (single isomer, unassigned; (-)) [5-E b) (−), (−)-2-(1-amino-1-(5-(difluoromethoxy)-7-methyl-1H-indol-4-yl)ethyl)-1H-benzo[d]imidazole-5-carbonitrile] was run?
Its IC50 is 40 nM.

`Cc1cc(OC(C)C)c(C(N)(c2nc3cc(C#N)ccc3[nH]2)C(F)(F)F)c2cc[nH]c12` (racemic) [Example 37, (±)-2-(1-Amino-2,2,2-trifluoro-1-(5-isopropoxy-7-methyl-1H-indol-4-yl)ethyl)-1H-benzo[d]imidazole-5-carbonitrile] was tested. Which IC50 did it give?
Its IC50 is 30 nM.

Which IC50 does the source give for `Cc1cc(C(C)C)c(C(C)(O)c2nc3cc(C#N)ccc3[nH]2)c2cc[nH]c12` (single isomer, unassigned; (-)) [79-B b) (−), (−)-2-(1-hydroxy-1-(5-isopropyl-7-methyl-1H-indol-4-yl)ethyl)-1H-benzo[d]imidazole-5-carbonitrile] here?
The IC50 was 260 nM.

For `CCc1cc(C)c2[nH]ccc2c1C(OC)(c1nc2cc(C#N)ccc2[nH]1)C(F)(F)F` (single isomer, unassigned; (+)) [84-D b) (+), (+)-2-(1-(5-ethyl-7-methyl-1H-indol-4-yl)-2,2,2-trifluoro-1-methoxyethyl)-1H-benzo[d]imidazole-5-carbonitrile], which IC50 is on record?
The IC50 was 460 nM.

With `Cc1cc(C2CC2)c(C(O)c2nc3cc(C#N)c(F)cc3[nH]2)c2cc[nH]c12` (stereo not drawn) [Example 67-H] as the compound, how does the IC50 read?
Its IC50 is 1930 nM.

Which IC50 does the source give for `Cc1cc(C)c2[nH]ccc2c1C(C)(O)c1nc2cc(C#N)ccc2[nH]1` (single isomer, unassigned; (-)) [76-B b) (−), (−)-2-(1-(5,7-Dimethyl-1H-indol-4-yl)-1-hydroxyethyl)-1H-benzo[d]imidazole-5-carbonitrile] here?
Its IC50 is 190 nM.

How did the IC50 turn out when `Cc1cc(Cl)c2[nH]ccc2c1Cc1nc2cc(C#N)ccc2[nH]1` [Example 110-K, 2-((7-Chloro-5-methyl-1H-indol-4-yl)methyl)-1H-benzo[d]imidazole-5-carbonitrile] was run?
Its IC50 is 3330 nM.

How did the IC50 turn out when `COc1cc(C)c2[nH]ccc2c1Cc1nc2cc(C#N)ccc2o1` [Example 20-G] was run?
Its IC50 is 120 nM.

For `Cc1cc(C)c2[nH]ccc2c1C(O)(c1nc2cc(C#N)ccc2[nH]1)C(F)(F)F` (single isomer, unassigned; (-)) [80-D b) (−), (−)-2-(1-(5,7-dimethyl-1H-indol-4-yl)-2,2,2-trifluoro-1-hydroxyethyl)-1H-benzo[d]imidazole-5-carbonitrile], which IC50 is on record?
Its IC50 is 70 nM.

Which IC50 does the source give for `Cc1cc(C)c2[nH]ccc2c1C(C)(N)c1nc2cc(C#N)ccc2[nH]1` (racemic) [101-E b) (+), (+)-2-(1-amino-1-(5,7-dimethyl-1H-indol-4-yl)ethyl)benzo[d]imidazole-5-carbonitrile] here?
The IC50 was 80 nM.

How did the IC50 turn out when `Cc1cc(C(C)C)c(C(O)(c2nc3cc(C#N)ccc3[nH]2)C(F)(F)F)c2cc[nH]c12` (single isomer, unassigned; (-)) [80-F b) (−), (−)-2-(2,2,2-trifluoro-1-hydroxy-1-(5-isopropyl-7-methyl-1H-indol-4-yl)ethyl)-1H-benzo[d]imidazole-5-carbonitrile] was run?
The IC50 was 20 nM.

Same assay, conditions: assay of Biological Example 1 (Table 1), read-out: IC50

“(+) or (−)-2-(1-methoxy-1-(7-methyl-5-(methylsulfonyl)-1H-indol-4-yl)ethyl)-1H-benzo[d]imidazole-5-carbonitrile [12-B b) (tr = 3.5 min)]” was tested. Which IC50 did it give?
Its IC50 is 13800 nM.
